Data: patent US6069132A, “Phosphazole compounds” (priority 1997, dated 2000)
≈ marks a conversion by molar mass, not a printed value. Where two headings read alike, the source gives them in different places.

Tests used:
HCMV (Town strain) = assay: HCMV plaque reduction (CPE) assay in MRC-5 cells; format: cell-based, human cytomegalovirus; settings: Human betaherpesvirus 5, MRC5; Table 4; read-out: IC50 HCMV
Description: The adenine analog phosphazole (compound T70241) was assayed for antiviral activity using a HCMV plaque reduction assay, in accordance with known methods such as that described in U.S. Pat. No. 5,446,045.
(§1) Cell Culture. Vero (African Green Monkey kidney cells) and MRC-5 (diploid Human Embryonic Lung fibroblasts) cells were obtained from the American Type Culture Collection (ATCC) and were grown in minimal essential medium (MEM) with Earl's salts and glutamine (GIBCO BRL, Life Technologies, Inc.) with 10% heat inactivated fetal bovine serum (GIBCO BRL) and penicillin (100 μg/mL)/streptomycin (100 μg/mL).
CMV Cytopathic Effect (CPE) Assay. Assays were performed essentially as described by Lewis et al. (111), which report is incorporated herein by reference. MRC-5 cells (100,000 cells/well) were seeded in 24-well plates overnight. Medium was then removed and wells were rinsed once with 250 μL of 2% FCS-MEM before adding 40-50 pfu of HCMV (Town strain) to each well. After 2 hours of virus adsorption, the medium was removed and the cells were rinsed once with 2% FCS-MEM. Varying concentrations of the phosphazole compound in the culture medium (1 mL) was then added to appropriate wells and plates were incubated for 5-6 days at 37° C. in a humidified 5% CO2 atmosphere. Each concentration was tested in duplicate wells.
The extent of the plaque reduction was quantitated by removing the media and adding 200 μL of 0.1% crystal violet in 20% methanol to all wells. The crystal violet was then removed after 10 min staining at room temperature by rinsing in the sink with tap water and the plates dried overnight. The plaques were then counted using a Nikon inverted microscope.

[1] = cited from earlier work
herpesviruses = settings: cited from earlier work
[2] = Cytotoxicity on growing MRC-5 cells (MTS); format: cell-based, human; settings: human, mrc-5 cells; Table 4; 50% inhibition of logphase growing cells; read-out: TC50 Growing MRC-5
Description: as §1
(§2) Cytotoxicity Analysis. The cytotoxicity of the compound was assayed using few the CellTiter 96™ Aqueous Non-Radioactive Cell Proliferation (MTS) Assay (Promega). Briefly, viable cell number was determined by trypan blue staining and cells (MRC-5 and Vero) were resuspended in minimal essential medium (MEM) supplemented with 10% FBS (GIBCO). Eighty microliters of cell suspension (1.7×10^4 cells/well) was dispensed onto a 96-well microtiter plates. At this time 20 μL of drug (or control) was added to appropriate wells. Each concentration was assayed in quadruplicate. The plates were incubated at 37° C. in a humidified 5% CO2 atmosphere for 4 days and MTS assay was performed according to the manufacturer's instructions. The average absorbence of the sample was graphed for each concentration and the data obtained was used to calculate TC50 (the concentration necessary to give one-half maximum growth) for each compound.

[3] = Cytotoxicity on growing Vero cells (MTS); format: cell-based; settings: african green monkey, Table 4, 50% inhibition of logphase growing cells, read-out: TC50 Growing Vero
Description: as §1, §2

[4] = Cytotoxicity on static MRC-5 cells; format: cell-based; settings: human, Table 4, 50% cell death (static cells), read-out: TC50 Static MRC-5
Description: as §1, §2

[5] = test system: bone marrow progenitor cells; settings: cited from earlier work
normal cells = settings: relative to antiviral concentrations; cited from earlier work
[6] = Cytotoxicity on static Vero cells; format: cell-based; settings: african green monkey, Table 4, 50% cell death (static cells), read-out: TC50 Static Vero
Description: as §1, §2

coxsackie B4 virus = settings: in culture; cited from earlier work
[7] = test system: human T-lymphoblast (Molt-4F) cells; settings: in culture; cited from earlier work
[8] = test system: human B-lymphoblast (Raji) cells; settings: in culture; cited from earlier work
[9] = test system: murine leukemia (L1210) cells; settings: in culture; cited from earlier work
vaccinia virus = settings: in culture; cited from earlier work
[10] = test system: vesicular stomatitis virus; settings: in culture; cited from earlier work
[11] = test system: murine mammary carcinoma (FM3) cells; settings: in culture; cited from earlier work

Row | SMILES | IC50 (HCMV (Town strain)) | clinical toxicity ([1]; human, in vivo) | activity against herpesviruses (herpesviruses) | CC50 at 96 h [2] | CC50 at 96 h [3] | CC50 at 96 h [4] | toxicity to bone marrow progenitor cells [5] | concentration needed to inhibit growth of normal cells (normal cells) | CC50 at 96 h [6] | activity against coxsackie B4 virus (coxsackie B4 virus) | inhibition of proliferation of Molt-4F [7] | inhibition of proliferation of Raji [8] | inhibition of proliferation of L1210 [9] | activity against vaccinia virus (vaccinia virus) | activity against vesicular stomatitis virus [10] | inhibition of proliferation of FM3 [11] | clinical toxicity ([1]; patients)
1 | Nc1nc(O)c2ncn(COC(CO)CO)c2n1 [DHPG, ganciclovir, reference compound] | 3.5 µg/mL (≈ 13.7 µM) | most clinical toxicity is myelosuppression | potent inhibitor of most human and animal herpes viruses in culture | > 250 µg/mL | > 250 µg/mL | > 250 µg/mL | toxic to bone marrow progenitor cells in culture | much higher concentrations are needed to inhibit cell growth of normal cells | > 250 µg/mL | – | – | – | – | – | – | – | –
2 | CCOP(=O)(OCC)c1nc2c(Cl)ncnc2n1[C@@H]1O[C@H](CO)[C@@H](O)[C@H]1O [compound 1, Diethyl 6-chloro-9-(β-D-ribofuranosyl)purine-8-phosphate] | – | – | – | – | – | – | – | – | – | significant activity | inhibitory | inhibitory | inhibitory | significant activity | significant activity | inhibitory | –
3 | O=C(O)P(=O)(O)O [foscarnet] | – | – | observed activity against all known human herpesviruses | – | – | – | – | – | – | – | – | – | – | – | – | – | nephrotoxicity, hypocalcemia, and seizures in some patients
